Measurements from patent publication US9981916B2 (Genentech, Inc., priority 2013, dated 2018).
pIC50: −log10 of the molar value.

Biological target: T1, RORc ligand binding domain (Homo sapiens, UniProt P51449)
T1 construct: host or cells: E. coli
T1 sequence (P51449 269-508 limits assumed): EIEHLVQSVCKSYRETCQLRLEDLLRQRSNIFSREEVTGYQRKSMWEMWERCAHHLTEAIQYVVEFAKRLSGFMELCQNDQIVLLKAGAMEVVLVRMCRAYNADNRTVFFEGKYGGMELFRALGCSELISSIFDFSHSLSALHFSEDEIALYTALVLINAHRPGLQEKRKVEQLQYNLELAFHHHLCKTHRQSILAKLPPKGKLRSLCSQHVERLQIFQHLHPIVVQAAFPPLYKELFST
Assay: In vitro RORc ligand binding assay (25-[3H]hydroxycholesterol displacement, filter binding)
Settings: 6 nM 25-[3H]hydroxycholesterol, 0.6 ug/mL RORc receptor, 3 h at 25° C.
Summary of the method: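 Filter-binding displacement of 6 nM 25-[3H]hydroxycholesterol from RORc receptor (0.6 ug/mL) in 50 mM HEPES pH 7.4, 150 mM NaCl, 5 mM MgCl2, 1 mM DTT, 0.01% BSA, 5% DMSO; 3 h at 25° C. NSB defined with 1 uM 25-hydroxycholesterol; scintillation counting gave Kiapp, IC50 or % inhibition (screening at 1 and 10 uM).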

| Structure (SMILES) | pIC50 |
| --- | --- |
| CC1(C)[C@H]2CC[C@]1(C(=O)NC1COC1)c1nnc(-c3c(F)cccc3F)cc12 [Example 187, (5R,8R)-3-(2,6-difluorophenyl)-9,9-dimethyl-N-(oxetan-3-yl)-5,6,7,8-tetrahydro-5,8-methanocinnoline-8-carboxamide] | 5.62 |
| COC1CN(C(=O)[C@@]23CC[C@@H](c4cc(-c5c(F)cccc5F)nnc42)C3(C)C)C1 [Example 188, ((5R,8R)-3-(2,6-difluorophenyl)-9,9-dimethyl-5,6,7,8-tetrahydro-5,8-methanocinnolin-8-yl)(3-methoxyazetidin-1-yl)methanone] | 5.61 |
| CC(C)OC1CN(C(=O)[C@@]23CC[C@@H](c4cc(-c5c(F)cccc5F)nnc42)C3(C)C)C1 [Example 190, ((5R,8R)-3-(2,6-difluorophenyl)-9,9-dimethyl-5,6,7,8-tetrahydro-5,8-methanocinnolin-8-yl)(3-isopropoxyazetidin-1-yl)methanone] | 5.74 |
| Cc1cc([C@@]23CC[C@@H](c4cc(-c5c(F)cccc5F)nnc42)C3(C)C)[nH]n1 [Example 191, (5R,8S)-3-(2,6-difluorophenyl)-9,9-dimethyl-8-(3-methyl-1H-pyrazol-5-yl)-5,6,7,8-tetrahydro-5,8-methanocinnoline] | 6.91 |
| Cc1nc([C@@]23CC[C@@H](c4cc(-c5c(F)cccc5F)nnc42)C3(C)C)co1 [Example 192, 4-((5R,8S)-3-(2,6-difluorophenyl)-9,9-dimethyl-5,6,7,8-tetrahydro-5,8-methanocinnolin-8-yl)-2-methyloxazole] | 6.69 |
| Cc1ocnc1[C@@]12CC[C@@H](c3cc(-c4c(F)cccc4F)nnc31)C2(C)C [Example 193, 4-((5R,8S)-3-(2,6-difluorophenyl)-9,9-dimethyl-5,6,7,8-tetrahydro-5,8-methanocinnolin-8-yl)-5-methyloxazole] | 7.17 |
| CC1(C)[C@H]2CC[C@]1(c1ccno1)c1nnc(-c3c(F)cccc3F)cc12 [Example 194, 5-((5R,8R)-3-(2,6-difluorophenyl)-9,9-dimethyl-5,6,7,8-tetrahydro-5,8-methanocinnolin-8-yl)isoxazole] | 7.30 |
| COc1cnc([C@@]23CC[C@@H](c4cc(-c5c(F)cccc5F)nnc42)C3(C)C)o1 [Example 195, 2-((5R,8R)-3-(2,6-difluorophenyl)-9,9-dimethyl-5,6,7,8-tetrahydro-5,8-methanocinnolin-8-yl)-5-methoxyoxazole] | 7.40 |
| CN(C)Cc1nnc([C@@]23CC[C@@H](c4cc(-c5c(F)cccc5F)nnc42)C3(C)C)o1 [Example 196, 1-(5-((5R,8R)-3-(2,6-difluorophenyl)-9,9-dimethyl-5,6,7,8-tetrahydro-5,8-methanocinnolin-8-yl)-1,3,4-oxadiazol-2-yl)-N,N-dimethylmethanamine] | 5.72 |
| CC1(C)[C@H]2CC[C@]1(c1ccon1)c1nnc(-c3c(F)cccc3F)cc12 [Example 197, 3-((5R,8R)-3-(2,6-difluorophenyl)-9,9-dimethyl-5,6,7,8-tetrahydro-5,8-methanocinnolin-8-yl)isoxazole] | 7.36 |
| CC1(C)[C@H]2CC[C@]1(C(=O)N1CC(OCc3ccccc3)C1)c1nnc(-c3c(F)cccc3F)cc12 [Example 198, (3-(benzyloxy)azetidin-1-yl)((5R,8R)-3-(2,6-difluorophenyl)-9,9-dimethyl-5,6,7,8-tetrahydro-5,8-methanocinnolin-8-yl)methanone] | 5.49 |
| CC1(C)[C@H]2CC[C@]1(C(=O)N1CC(O)C1)c1nnc(-c3c(F)cccc3F)cc12 [Example 199, ((5R,8R)-3-(2,6-difluorophenyl)-9,9-dimethyl-5,6,7,8-tetrahydro-5,8-methanocinnolin-8-yl)(3-hydroxyazetidin-1-yl)methanone] | 6.34 |
| CC1(C)[C@@H]2CC[C@@]1(I)c1nnc(-c3ccccc3F)cc12 [Example 200, (5R,8S)-3-(2-fluorophenyl)-8-iodo-9,9-dimethyl-5,6,7,8-tetrahydro-5,8-methanocinnoline] | 6.47 |
| CC1(C)[C@@H]2CC[C@@]1(C(=O)NC1CCC1)c1nnc(-c3c(F)cccc3F)cc12 [Example 201, (5S,8S)-N-cyclobutyl-3-(2,6-difluorophenyl)-9,9-dimethyl-5,6,7,8-tetrahydro-5,8-methanocinnoline-8-carboxamide] | 6.12 |
| CC1(C)[C@@H]2CC[C@@]1(C(=O)NCC1CC1)c1nnc(-c3c(F)cccc3F)cc12 [Example 202, (5S,8S)-N-(cyclopropylmethyl)-3-(2,6-difluorophenyl)-9,9-dimethyl-5,6,7,8-tetrahydro-5,8-methanocinnoline-8-carboxamide] | 6.71 |
| CC(=O)N(C)C1CCN(C(=O)[C@]23CC[C@H](c4cc(-c5c(F)cccc5F)nnc42)C3(C)C)C1 (stereo partly drawn) [Example 203, N-(1-((5S,8S)-3-(2,6-difluorophenyl)-9,9-dimethyl-5,6,7,8-tetrahydro-5,8-methanocinnoline-8-carbonyl)pyrrolidin-3-yl)-N-methylacetamide] | 5.91 |
| CC1(C)[C@@H]2CC[C@@]1(C(=O)N1CCC[C@@H]1CO)c1nnc(-c3c(F)cccc3F)cc12 [Example 204, ((5S,8S)-3-(2,6-difluorophenyl)-9,9-dimethyl-5,6,7,8-tetrahydro-5,8-methanocinnolin-8-yl) ((R)-2-(hydroxymethyl)pyrrolidin-1-yl)methanone] | 6.22 |
| CC1(C)[C@@H]2CC[C@@]1(C(=O)Nc1ccc(C#N)cn1)c1nnc(-c3c(F)cccc3F)cc12 [Example 205, (5S,8S)-N-(5-cyanopyridin-2-yl)-3-(2,6-difluorophenyl)-9,9-dimethyl-5,6,7,8-tetrahydro-5,8-methanocinnoline-8-carboxamide] | 5.55 |
| CC1(C)[C@@H]2CC[C@@]1(C(=O)NC1CCCC1)c1nnc(-c3c(F)cccc3F)cc12 [Example 206, (5S,8S)-N-cyclopentyl-3-(2,6-difluorophenyl)-9,9-dimethyl-5,6,7,8-tetrahydro-5,8-methanocinnoline-8-carboxamide] | 5.91 |
| CC1(C)[C@@H]2CC[C@@]1(C(=O)N1CCC(F)(F)C1)c1nnc(-c3c(F)cccc3F)cc12 [Example 207, ((5S,8S)-3-(2,6-difluorophenyl)-9,9-dimethyl-5,6,7,8-tetrahydro-5,8-methanocinnolin-8-yl)(3,3-difluoropyrrolidin-1-yl)methanone] | 6.72 |
| CC1(C)[C@@H]2CC[C@@]1(C(=O)N1CCC(C(F)(F)F)C1)c1nnc(-c3c(F)cccc3F)cc12 (stereo partly drawn) [Example 208, ((5S,8S)-3-(2,6-difluorophenyl)-9,9-dimethyl-5,6,7,8-tetrahydro-5,8-methanocinnolin-8-yl)(3-(trifluoromethyl)pyrrolidin-1-yl)methanone] | 6.85 |
| CC(C)CNC(=O)[C@]12CC[C@H](c3cc(-c4c(F)cccc4F)nnc31)C2(C)C [Example 209, (5S,8S)-3-(2,6-difluorophenyl)-N-isobutyl-9,9-dimethyl-5,6,7,8-tetrahydro-5,8-methanocinnoline-8-carboxamide] | 5.81 |
| CC1(C)[C@@H]2CC[C@@]1(C(=O)NCC(F)F)c1nnc(-c3c(F)cccc3F)cc12 [Example 210, (5S,8S)-N-(2,2-difluoroethyl)-3-(2,6-difluorophenyl)-9,9-dimethyl-5,6,7,8-tetrahydro-5,8-methanocinnoline-8-carboxamide] | 6.28 |
| CN(C)C(=O)C1CCN(C(=O)[C@]23CC[C@H](c4cc(-c5c(F)cccc5F)nnc42)C3(C)C)C1 (stereo partly drawn) [Example 211, 1-((5S,8S)-3-(2,6-difluorophenyl)-9,9-dimethyl-5,6,7,8-tetrahydro-5,8-methanocinnoline-8-carbonyl)-N,N-dimethylpyrrolidine-3-carboxamide] | 6.14 |
| CNC(=O)[C@@H]1[C@@H]2CN(C(=O)[C@]34CC[C@H](c5cc(-c6c(F)cccc6F)nnc53)C4(C)C)C[C@@H]21 [Example 212, (1R,5S,6R)-3-((5S,8S)-3-(2,6-difluorophenyl)-9,9-dimethyl-5,6,7,8-tetrahydro-5,8-methanocinnoline-8-carbonyl)-N-methyl-3-azabicyclo[3.1.0]hexane-6-carboxamide] | 5.67 |
| COC(=O)C1CCN(C(=O)[C@]23CC[C@H](c4cc(-c5c(F)cccc5F)nnc42)C3(C)C)C1 (stereo partly drawn) [Example 213, methyl 1-((5S,8S)-3-(2,6-difluorophenyl)-9,9-dimethyl-5,6,7,8-tetrahydro-5,8-methanocinnoline-8-carbonyl)pyrrolidine-3-carboxylate] | 7.49 |
| CC1(C)[C@@H]2CC[C@@]1(C(=O)N1CC3CC1C3)c1nnc(-c3c(F)cccc3F)cc12 [Example 214, 2-azabicyclo[2.1.1]hexan-2-yl((5S,8S)-3-(2,6-difluorophenyl)-9,9-dimethyl-5,6,7,8-tetrahydro-5,8-methanocinnolin-8-yl)methanone] | 6.66 |
| CC1(C)[C@@H]2CC[C@@]1(C(=O)N1CC[C@H](CO)C1)c1nnc(-c3c(F)cccc3F)cc12 [Example 216, ((5S,8S)-3-(2,6-difluorophenyl)-9,9-dimethyl-5,6,7,8-tetrahydro-5,8-methanocinnolin-8-yl)((S)-3-(hydroxymethyl)pyrrolidin-1-yl)methanone] | 6.08 |
| CC1(C)[C@@H]2CC[C@@]1(C(=O)N1CC3COCC3C1)c1nnc(-c3c(F)cccc3F)cc12 (stereo partly drawn) [Example 217, ((5S,8S)-3-(2,6-difluorophenyl)-9,9-dimethyl-5,6,7,8-tetrahydro-5,8-methanocinnolin-8-yl)(tetrahydro-1H-furo[3,4-c]pyrrol-5(3H)-yl)methanone] | 6.84 |
